Measured values published in patent US20240025887A1, “THIENYL AND CYCLOALKYL AMINOPYRIMIDINE COMPOUNDS AS INHIBITORS OF NUAK KINASES, COMPOSITIONS AND USES THEREOF” (Ontario Institute for Cancer Research (OICR), priority 2021, published 2024).

Legend:
[1] = test system: YAP/TAZ nuclear localization in several cancer cell lines; conditions: IF confocal microscopy; cited from earlier work
[2] = test system: YAP/TAZ transcriptional function in several cancer cell lines; conditions: PCR; cited from earlier work
[3] = test system: MDA-MB-231 cells; assay: Tumor cell growth inhibition assay (ATPlite); format: cell-based; conditions: Homo sapiens, 120 h, MDA-MB-231 breast tumor cell line, 5 days
Description: MDA-MB-231 cells were seeded into a 384-well plate at 1,000 cells/well in 50 μl medium (Alpha-MEM containing 10% FBS, […] Normocin, Invivogen and […] Gentamycin, Invitrogen). Plates were then incubated overnight for the cells to attach. An HP D300 digital dispenser was used to dose cells with DMSO or test compounds across a 16-point range of concentrations (high dose of 10 uM to low dose of 5 nM). Plates were incubated in a humidified 5% CO2 incubator at 37° C. After 5 days, plates were removed from the incubator and equilibrated to room temperature. An equal volume of ATPlite assay reagent was then added to each well, and samples processed according to manufacturer's instructions (Perkin Elmer). Luminescent signals were then measured using an Envision plate reader equipped with a US-Luminescence detector.

[4] = molecular target: T1, Aurora A (Homo sapiens, UniProt O14965); assay: Aurora A counter screen; format: biochemical; conditions: read-out: AUR-A (IC50)
T1 sequence (O14965 1-403): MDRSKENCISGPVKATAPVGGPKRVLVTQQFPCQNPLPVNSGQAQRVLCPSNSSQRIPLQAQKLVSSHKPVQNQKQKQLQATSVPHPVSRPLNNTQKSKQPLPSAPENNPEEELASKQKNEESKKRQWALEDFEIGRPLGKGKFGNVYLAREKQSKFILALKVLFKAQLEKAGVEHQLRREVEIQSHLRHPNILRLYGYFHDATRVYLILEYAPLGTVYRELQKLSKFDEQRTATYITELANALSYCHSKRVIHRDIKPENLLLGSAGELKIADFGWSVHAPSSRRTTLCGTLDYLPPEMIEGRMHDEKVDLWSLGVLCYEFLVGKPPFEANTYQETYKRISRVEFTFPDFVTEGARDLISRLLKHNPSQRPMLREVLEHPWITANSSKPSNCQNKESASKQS
Outline: (§1)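 Radiometric assay with full-length recombinant NUAK2 in 8 mM MOPS pH 7.0, 0.2 mM EDTA, 10 mM magnesium acetate, 300 μM peptide substrate and [33P]-ATP, 40 min at room temperature. Phosphoric acid stop, filter capture, scintillation counting. Aurora A and NUAK1 used as counter screens.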

[5] = molecular target: T2, NUAK2 (h) (Homo sapiens, UniProt Q9H093); assay: NUAK2 enzymatic assay (radiometric, Eurofins); format: biochemical; conditions: for AUR-A (IC50, nM)/NUAK2 (IC50, nM): NUAK2 selectivity over Aurora-A, ratio of IC50s; for IC50: radiometric, full-length recombinant enzyme
T2 construct: This assay was done radiometrically using full-length, recombinant enzyme; purchased Eurofins
T2 sequence (Q9H093 1-628): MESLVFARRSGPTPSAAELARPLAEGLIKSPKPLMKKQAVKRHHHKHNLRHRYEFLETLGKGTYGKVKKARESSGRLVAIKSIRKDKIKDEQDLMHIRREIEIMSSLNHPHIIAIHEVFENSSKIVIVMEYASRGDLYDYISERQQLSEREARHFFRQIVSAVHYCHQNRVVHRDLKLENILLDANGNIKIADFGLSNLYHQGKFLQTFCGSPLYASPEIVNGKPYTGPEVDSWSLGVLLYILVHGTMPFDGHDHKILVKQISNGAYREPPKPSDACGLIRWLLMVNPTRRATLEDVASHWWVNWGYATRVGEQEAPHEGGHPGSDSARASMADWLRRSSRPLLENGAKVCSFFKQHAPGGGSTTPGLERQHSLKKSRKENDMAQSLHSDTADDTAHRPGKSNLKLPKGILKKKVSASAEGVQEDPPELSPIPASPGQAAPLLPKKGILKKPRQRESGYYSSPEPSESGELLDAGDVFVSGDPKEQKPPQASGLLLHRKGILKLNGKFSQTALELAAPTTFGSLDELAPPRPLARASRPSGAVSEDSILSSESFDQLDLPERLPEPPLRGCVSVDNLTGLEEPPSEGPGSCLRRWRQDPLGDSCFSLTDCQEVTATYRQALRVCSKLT
Outline: as §1

[6] = molecular target: T3, NUAK1 (Homo sapiens, UniProt O60285); assay: NUAK1 counter screen; format: biochemical
T3 sequence (O60285 1-661): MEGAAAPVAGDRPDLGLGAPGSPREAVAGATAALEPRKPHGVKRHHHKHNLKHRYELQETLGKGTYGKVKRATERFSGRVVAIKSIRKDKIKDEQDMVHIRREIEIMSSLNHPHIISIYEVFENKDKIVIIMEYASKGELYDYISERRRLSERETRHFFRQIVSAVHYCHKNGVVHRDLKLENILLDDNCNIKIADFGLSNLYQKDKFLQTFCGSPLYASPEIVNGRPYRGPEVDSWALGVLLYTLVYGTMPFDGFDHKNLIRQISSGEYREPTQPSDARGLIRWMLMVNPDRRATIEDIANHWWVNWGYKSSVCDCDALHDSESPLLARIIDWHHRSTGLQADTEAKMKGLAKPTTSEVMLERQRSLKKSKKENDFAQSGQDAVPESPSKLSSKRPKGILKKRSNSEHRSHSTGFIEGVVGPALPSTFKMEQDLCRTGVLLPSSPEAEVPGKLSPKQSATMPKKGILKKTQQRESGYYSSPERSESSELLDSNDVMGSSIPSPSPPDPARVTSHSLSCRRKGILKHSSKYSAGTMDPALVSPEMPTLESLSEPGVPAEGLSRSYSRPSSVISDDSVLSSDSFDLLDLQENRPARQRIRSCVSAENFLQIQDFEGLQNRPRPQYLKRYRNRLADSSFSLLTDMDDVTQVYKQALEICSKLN
Outline: as §1

[7] = test system: YAP/TAZ nuclear localization in Clover-YAP expressing MDA-MB-231 cells; assay: Cell-based YAP/TAZ localization assay; conditions: Clover-YAP MDA-MB-231 cells, live imaging every 10 min for 2 h, FIG. 1
Description: Compounds of the application were tested for their ability to inhibit localization of YAP/TAZ to the nucleus of cells using an assay generally described in Nature Communications, 2018, 9:3510. Live cell imaging of Clover-YAP expressing MDA-MB-231 cells was carried out using a custom WAVE-FX-X1 spinning disc confocal system (Quorum Technologies) with a modified Yokogawa CSU-X1 scanhead on an AxioObserver Z1 inverted microscope (Carl Zeiss) with a x40 NA 1.2 Plan Apochromat (Carl Zeiss) objective. Cells were plated in a 35 mm glass-bottom dish (Mat-Tek, P35G-1.5-14-C) and were maintained in a stage-top incubator at 37° C. and 5% CO2 during imaging. Cells were cultured in phenol-red free RPMI medium (Thermo Fisher Scientific, 11835030) with 5% FBS and 200 nM SiR-DNA (Spirochrom, S0007) was added 1 h prior to imaging to visualize the nuclei. Localization of Clover-YAP was monitored every 10 min for 2 h. Volocity software was used for image acquisition and processing.

[8] = test system: pSer445 MYPT1 in MDA-MB-231 cells; assay: Cell-based phospho-MYPT1 assay; conditions: 500 nM, 1 hour, immunoblot, FIG. 2
Description: Compounds with sufficient activity in the biochemical NUAK assay were evaluated in a cell-based assay to confirm their targeted activity. To allow direct assessment of target engagement by NUAK2 inhibitors in cells, an antibody to MYPT1, a NUAK2 substrate, which specifically recognizes the phosphorylated Ser445 epitope in endogenous MYPT1 protein was utilized (Biochem J. 2014 457 (Pt 1): 215-225; Biochem J. 201 461 (Pt 2): 233-245).
MDA-MB-231 cells were incubated in the absence (DMSO) or presence of Compound I-1 (500 nM) for 1 hour. Cell were lysed at 4° C. for 30 mins in RIPA buffer (50 mM tris-HCL, 150 mM NaCl, 1 mM EDTA, 0.1% SDS, 1% NP-40, 0.5% Sodium deoxycholate) containing protease and phosphatase inhibitors. Samples were separated by sodium dodecyl sulfate-polyacrylamide gel electrophoresis (SDS-PAGE), transferred to nitrocellulose and immunoblotted for the detection of pSer^445MYPT1 or ACTIN.

| SMILES | IC50 [3] [nM] | IC50 [4] [nM] | AUR-A (IC50, nM)/NUAK2 (IC50, nM) [5] | IC50 [5] [nM] | IC50 [6] [nM] | YAP/TAZ nuclear localization [1] | YAP/TAZ transcriptional function (target gene expression) [2] | inhibition of YAP/TAZ nuclear localization [7] | formation of cellular p-MYPT1 (pSer445) [8] |
| --- | --- | --- | --- | --- | --- | --- | --- | --- | --- |
| CCC(=O)Nc1cccc(Oc2nc(Nc3ccc(N4CCN(C)CC4)cc3OC)ncc2Cl)c1 [WZ4003] |  |  |  |  |  | a block of YAP/TAZ nuclear localization | attenuates transcriptional function |  |  |
| CN1CCN(c2ccc(Nc3ncc4cc(C#N)c(=O)n(C5CCCC5)c4n3)cc2)CC1 [ON123300] |  |  |  |  |  | a block of YAP/TAZ nuclear localization | attenuates transcriptional function |  |  |
| CN1C2CCC1CN(c1ccc(Nc3ncc(Cl)c(Nc4ccsc4C(N)=O)n3)c(OC(F)F)c1)C2 [Compound I-30, 3-((5-chloro-2-((2-(difluoromethoxy)-4-(8-methyl-3,8-diazabicyclo[3.2.1]octan-3-yl)phenyl)amino)pyrimidin-4-yl)amino)thiophene-2-carboxamide] | 144 | 101 to 1000 |  | 0.1 to 10 | 11 to 100 |  |  |  |  |
| CN1CCN(c2ccc(Nc3ncc(Cl)c(Nc4ccsc4C(N)=O)n3)c(OC(F)F)c2)CC1 [Compound I-1, 3-((5-chloro-2-((2-(difluoromethoxy)-4-(4-methylpiperazin-1-yl)phenyl)amino)pyrimidin-4-yl)amino)thiophene-2-carboxamide] | 195 | 101 to 1000 | 40 | 0.1 to 10 | 11 to 100 |  |  | significant improvement in inhibition of YAP/TAZ nuclear localization | inhibits the formation of cellular p-MYPT1 |

Now from value to compound, other results behind:

| IC50 [3] [nM] | IC50 [4] [nM] | AUR-A (IC50, nM)/NUAK2 (IC50, nM) [5] | IC50 [5] [nM] | IC50 [6] [nM] | SMILES | YAP/TAZ nuclear localization [1] | YAP/TAZ transcriptional function (target gene expression) [2] | inhibition of YAP/TAZ nuclear localization [7] | formation of cellular p-MYPT1 (pSer445) [8] |
| --- | --- | --- | --- | --- | --- | --- | --- | --- | --- |
| 858 | 101 to 1000 | 176 | 0.1 to 10 | 11 to 100 | CN1CCN(c2ccc(Nc3ncc(Cl)c(N[C@@H]4CCCC[C@H]4C(N)=O)n3)c(OC(F)F)c2)CC1 [Compound I-82, (1R,2R)-2-((5-chloro-2-((2-(difluoromethoxy)-4-(4-methylpiperazin-1-yl)phenyl)amino)pyrimidin-4-yl)amino)cyclohexane-1-carboxamide] |  |  |  |  |
| 202 | 101 to 1000 | 30 | 11 to 100 | 11 to 100 | CN1CCN(C2CCN(c3ccc(Nc4ncc(Cl)c(Nc5ccsc5C(N)=O)n4)c(OC(F)F)c3)CC2)CC1 [Compound I-41, 3-((5-chloro-2-((2-(difluoromethoxy)-4-(4-(4-methylpiperazin-1-yl)piperidin-1-yl)phenyl)amino)pyrimidin-4-yl)amino)thiophene-2-carboxamide] |  |  |  |  |
| 653 | > 1000 | 86 | 11 to 100 | 11 to 100 | CN1CCN(c2ccc(Nc3ncc(Cl)c(Nc4ccsc4C(N)=O)n3)c(OC(F)F)c2F)CC1 [Compound I-42, 3-((5-chloro-2-((2-(difluoromethoxy)-3-fluoro-4-(4-methylpiperazin-1-yl)phenyl)amino)pyrimidin-4-yl)amino)thiophene-2-carboxamide] |  |  |  |  |
| 120 | 101 to 1000 |  | 0.1 to 10 | 11 to 100 | CN1CCCN(C2CCN(c3ccc(Nc4ncc(C(F)(F)F)c(Nc5ccsc5C(N)=O)n4)c(OC(F)F)c3)CC2)CC1 [Compound I-75, 3-((2-((2-(difluoromethoxy)-4-(4-(4-methyl-1,4-diazepan-1-yl)piperidin-1-yl)phenyl)amino)-5-(trifluoromethyl)pyrimidin-4-yl)amino)thiophene-2-carboxamide] |  |  |  |  |
| 96 | 101 to 1000 |  | 11 to 100 | 11 to 100 | CC(C)N1CCN(C2CCN(c3ccc(Nc4ncc(C(F)(F)F)c(Nc5ccsc5C(N)=O)n4)c(OC(F)F)c3)CC2)CC1 [Compound I-78, 3-((2-((2-(difluoromethoxy)-4-(4-(4-isopropylpiperazin-1-yl)piperidin-1-yl)phenyl)amino)-5-(trifluoromethyl)pyrimidin-4-yl)amino)thiophene-2-carboxamide] |  |  |  |  |
